{
  "source": "patent US11712422B2",
  "about": "“Pharmaceutical compositions comprising activated carbon” (FERRING B.V., priority 2012, dated 2023)",
  "origin": "cited, not measured here",
  "data": [
    {"molecule": "c1ccc2[nH]ccc2c1", "note": "[Indole]", "values": [
      {"measurement": "Log P", "value": 2.14}
    ]}
  ]
}
